Data published in PMC10706121, “Bioactive Polyketides from the Natural Complex of the Sea Urchin-Associated Fungi Penicillium sajarovii KMM 4718 and Aspergillus protuberus KMM 4747” (International Journal of Molecular Sciences, 2023).
“Also recorded” adds a separate entry of the source. Like-named read-outs stand apart in the source and are kept apart here.

Tests used:
[1] = Cell viability assay (MTT), cytotoxic activity; type: cell-based, human; settings: 24 h, MTT; for viability at 24 h, 10 µM / viability at 24 h, 100 µM: percent of control
Procedure: (§1) The HepG2 and H9c2 cells were cultured in DMEM medium (Biolot, St. Petersburg, Russia) containing 10% fetal bovine serum (Biolot, St. Petersburg, Russia) and 1% penicillin/streptomycin (Biolot, St. Petersburg, Russia) at 37 °C in a humidified atmosphere with 5% (v/v) CO2.
(§2) The HepG2 and H9c2 cells were seeded at concentrations of 5× 10^3 and 3×10^3 cell/well, respectively, and the experiments were started after 24 h. The compounds at concentrations up to 100 µM were added into the wells for 24 h, and the viability of the cells was measured by an MTT (3-(4,5-dimethylthiazol-2-yl)-2,5-diphenyltetrazolium bromide) assay, which was performed according to the manufacturer’s instructions (Sigma-Aldrich, Munich, Germany). All compounds were dissolved with DMSO so that the final concentration of DMSO in the cell culture was not more than 1%. Moreover, DMSO was used as a control. The absorbance of the resulting solution was measured at 570 nm with a microplate reader MultiscanFC (ThermoLabsystems Inc., Beverly, MA, USA). The results are presented as a percent of the control data and calculated IC50.

[2] = system: human hepatocarcinoma HepG2 cells; assay: Cell viability assay (MTT), cytotoxic activity; type: cell-based; settings: 100 µM
Procedure: as §1, §2

[3] = system: normal rat cardiomyocyte H9c2 cells; assay: Cell viability assay (MTT), cytotoxic activity; type: cell-based; settings: 100 µM
Procedure: as §1, §2

[4] = molecular target: T1, urease from Canavalia ensiformis (Canavalia ensiformis, UniProt P07374); assay: Urease inhibition assay (indophenol method, cell-free); type: biochemical; settings: for effect on urease activity: at concentrations of up to 100 µM
T1 construct: purchased Sigma
Procedure: A reaction mixture consisting of 25 µL of enzyme solution (urease from Canavalia ensiformis, Sigma, 1U final concentration) and 5 µL of test compounds dissolved in water (10–300.0 µM final concentration) was preincubated at 37 °C for 60 min in 96-well plates. Then, 55 µL of phosphate-buffered solution with […] of urea was added to each well and incubated at 37 °C for 10 min. The urease inhibitory activity was estimated by determining ammonia production using the indophenol method. Briefly, 45 µL of phenol reagent (1% w/v phenol and 0.005% w/v sodium nitroprusside) and 70 µL of alkali reagent (0.5% w/v NaOH and 0.1% active chloride NaClO) were added to each well. The absorbance was measured after 50 min at 630 nm using a MultiskanFS microplate reader (Thermo Scientific Inc., Beverly, MA, USA). All reactions were performed in triplicate in a final volume of 200 µL. The pH was maintained at 7.3–7.5 in all assays. DMSO 5% was used as a positive control.

Candida albicans KMM 455 = assay: Antimicrobial activity, inhibition of microbial growth (OD620); type: cell-based; settings: for inhibition at 100 µM: Candida albicans
Procedure: (§3) The yeast-like fungi of Candida albicans KMM 455 and bacterial strains Staphylococcus aureus ATCC 21027 and Escherichia coli VKPM (B-7935) (Collection of Marine Microorganisms PIBOC FEB RAS) were cultured on solid-medium Mueller Hinton broth with agar (16.0 g/L) in a Petri dish at 37 °C for 24 h.
(§4) The assays were performed in 96-well microplates in appropriate Mueller Hinton broth. Each well contained 90 µL of bacterial or of a yeast-like fungi suspension (10^9 CFU/mL). Then, 10 µL of a compound diluted at concentrations ranging from 1.5 to 100.0 µM using a 2-fold dilution was added (DMSO concentration < 1%). Culture plates were incubated overnight at 37 °C, and the OD620 was measured using a Multiskan FS spectrophotometer (Thermo Scientific Inc., Beverly, MA, USA). The antibiotic gentamicin and antifungal agent nitrofungin were used as positive controls at 1 mg/mL; 1% DMSO in PBS served as a negative control.

[5] = system: Staphylococcus aureus ATCC 21027; assay: as above; type: cell-based; settings: for inhibition at 100 µM: Staphylococcus aureus
Procedure: as §3, §4

[6] = system: Escherichia coli VKPM (B-7935); assay: as above; type: cell-based; settings: for inhibition at 100 µM: Escherichia coli, read-out: Inhibition of Microbial Growth, E. coli
Procedure: as §3, §4

[7] = system: S. aureus-infected H9c2 cardiomyocytes; assay: Staphylococcus aureus-induced infection of H9c2 cardiomyocytes (in vitro model of infectious myocarditis, MTT); type: cell-based, rat; settings: 1 and 10 µM
Procedure: The H9c2 cells were seeded at concentrations of 3 × 10^3 cell/well. After 24 h, the cell culture media was changed with an S. aureus bacterial suspension (10^2 CFU/mL) prepared in full DMEM culture media. The investigated compounds at concentrations of 1 and 10 µM were added after 1 h and the cells were incubated for 48 h. The S. aureus suspension with compounds at the same concentrations was used as a control. MTT reagent was added to all wells and formazan production was detected with the microplate reader MultiscanFC (ThermoLabsystems Inc., Beverly, MA, USA). The viability of S. aureus-infected cells was calculated as:Viability, relative units = (OD cells+Sa +comp − OD Sa+comp)/(OD cells+Sa − OD Sa)

[8] = human, HepG2 cells (human hepatocarcinoma), read-out: HepG2 IC50 (cytotoxic effect)
[9] = human, HepG2 hepatocarcinoma cells
[10] = rat, H9c2 cells (normal rat cardiomyocytes), read-out: H9c2 IC50 (cytotoxic effect)
[11] = KMM455, compounds tested at 100 µM, read-out: Inhibition of Microbial Growth, C. albicans
[12] = ATCC21027, compounds tested at 100 µM, read-out: Inhibition of Microbial Growth, S. aureus
[13] = human, read-out: HepG2 Cell Viability
[14] = rat, read-out: H9c2 Cell Viability

T1 sequence (P07374 whole entry, looked up): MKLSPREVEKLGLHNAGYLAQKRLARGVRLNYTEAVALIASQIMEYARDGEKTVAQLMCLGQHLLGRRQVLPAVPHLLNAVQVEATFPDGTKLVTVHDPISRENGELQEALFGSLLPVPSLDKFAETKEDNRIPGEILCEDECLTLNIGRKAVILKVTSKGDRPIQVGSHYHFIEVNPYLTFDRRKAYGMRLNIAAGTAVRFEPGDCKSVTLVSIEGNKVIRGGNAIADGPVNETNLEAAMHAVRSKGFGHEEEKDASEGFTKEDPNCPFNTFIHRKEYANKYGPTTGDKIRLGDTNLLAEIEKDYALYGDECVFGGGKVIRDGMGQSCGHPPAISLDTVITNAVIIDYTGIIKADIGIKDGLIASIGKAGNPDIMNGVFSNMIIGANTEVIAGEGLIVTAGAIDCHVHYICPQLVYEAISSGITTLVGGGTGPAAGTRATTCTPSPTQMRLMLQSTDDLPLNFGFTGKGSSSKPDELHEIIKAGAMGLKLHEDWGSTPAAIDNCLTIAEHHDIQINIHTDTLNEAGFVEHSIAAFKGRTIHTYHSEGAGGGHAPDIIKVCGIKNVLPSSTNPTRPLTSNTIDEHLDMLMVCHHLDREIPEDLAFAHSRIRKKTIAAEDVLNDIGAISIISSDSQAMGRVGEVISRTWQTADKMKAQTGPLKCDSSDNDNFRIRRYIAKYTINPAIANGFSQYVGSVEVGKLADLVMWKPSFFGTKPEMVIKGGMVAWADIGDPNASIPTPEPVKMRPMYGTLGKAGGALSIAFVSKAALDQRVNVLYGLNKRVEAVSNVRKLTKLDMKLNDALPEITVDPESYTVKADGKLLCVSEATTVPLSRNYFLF

Row | Compound | IC50 at 24 h [1, 8] [µM] | viability at 24 h, 10 µM [1, 9] [%] | viability at 24 h, 100 µM [1, 9] [%] | viability at 24 h, 10 µM ([1]; rat, H9c2 cardiomyocyte cells) [%] | viability at 24 h, 100 µM ([1]; rat, H9c2 cardiomyocyte cells) [%] | IC50 at 24 h [1, 10] [µM] | decrease of HepG2 cell viability [2] [%] | decrease of H9c2 cell viability [3] [%] | IC50 [4] [µM] | inhibition at 100 µM (Candida albicans KMM 455; [11]) [%] | inhibition at 100 µM [5, 12] [%] | inhibition at 100 µM ([6]; compounds tested at 100 µM) [%] | effect on urease activity [4] | effect on the viability of S. aureus-infected H9c2 cardiomyocytes [7] | other results
1 | COC1=CC(=O)C[C@@H](C)[C@]12Oc1c(Cl)c(OC)cc(OC)c1C2=O [Compound 8, griseofulvin, reference compound] | 77.8 ± 1.3 | 81 ± 2.1 | 39.9 ± 0.7 | 89.8 ± 2.7 | 71.6 ± 3.7 | > 100 | 60.1 | 28.4 | 10.1 ± 0.6 | < 10 | 11.5 ± 4.3 | 16.8 ± 4.5 | – | – | –
2 | COC1=CC(=O)C[C@@H](C)[C@]12Oc1c(Cl)c(O)cc(OC)c1C2=O [Compound 9, 6-O-desmethylgriseofulvin] | > 100 | 91.5 ± 6.8 | 84.2 ± 3.2 | 97.4 ± 8.1 | 92.9 ± 3.7 | > 100 | – | – | > 100 | < 10 | ~23 | ~23 | no effect; also recorded: did not show any effect | – | Inhibition of Microbial Growth, E. coli ([6]; compounds tested at 100 µM, 100 µM): 23.4 ± 1.8%
3 | CC1=CC(=O)OCC1 [Compound 11, 5,6-dihydro-4-methyl-2H-pyran-2-one] | – | – | – | – | – | – | 23.4 | – | 11.4 ± 1 | – | – | – | – | did not show any statistical effect | viability at 24 h, 10 µM [1, 13]: 87.5 ± 5.3%; viability at 24 h, 100 µM [1, 13]: 76.6 ± 2.4%; IC50 at 24 h ([1]; human, read-out: HepG2 IC50 (cytotoxic effect)): > 100 µM; viability at 24 h, 10 µM [1, 14]: 95.9 ± 0.6%; viability at 24 h, 100 µM [1, 14]: 89 ± 2.9%; IC50 at 24 h ([1]; rat, read-out: H9c2 IC50 (cytotoxic effect)): > 100 µM; inhibition at 100 µM (Candida albicans KMM 455; KMM455, read-out: Inhibition of Microbial Growth, C. albicans): < 10%; Inhibition of Microbial Growth, C. albicans (Candida albicans KMM 455; compounds tested at 100 µM): did not affect; inhibition at 100 µM ([5]; ATCC21027, read-out: Inhibition of Microbial Growth, S. aureus): < 10%; inhibition at 100 µM [6]: < 10%
4 | COC1=CC(=O)c2c(O)cc(OC)cc2[C@@]1(C)O [Compound 2, sajaroketide B] | > 100 | 87.3 ± 4.1 | 76.9 ± 2.1 | 96 ± 1.9 | 79 ± 3.4 | > 100 | – | 21.0 | 98.5 ± 0.8 | < 10 | < 10 | < 10 | – | did not show any statistical effect | Inhibition of Microbial Growth, S. aureus ([5]; compounds tested at 100 µM): inactive; Inhibition of Microbial Growth, E. coli ([6]; compounds tested at 100 µM): inactive
5 | Cc1cc(O)cc2oc(C[C@H](C)O)cc(=O)c12 [Compound 3, (2′S)-7-hydroxy-2-(2′-hydroxypropyl)-5-methylchromone] | > 100 | 91.7 ± 1.5 | 101 ± 3.9 | 96.4 ± 2.1 | 74.3 ± 3.2 | > 100 | – | 25.7 | > 100 | < 10 | 17.7 ± 0.3 | < 10 | no effect; also recorded: did not show any effect | – | –
